# Experimental data from US10670605B2, “Cysteine reactive probes and uses thereof” (The Scripps Research Institute, priority 2015, dated 2020).
# Legend:
# Test in all cases: Competitive isoTOP-ABPP, cell lysates;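 on isoTOP-ABPP reactivity profile ratio, P63244 C182: Heavy/light ratio DMSO over fragment-treated so higher means more cysteine engagement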;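 on isoTOP-ABPP reactivity profile ratio, P68036 C86: Heavy/light ratio DMSO over fragment-treated so higher means more cysteine engagement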
# Format in all cases: binding
# [1] = target: UBE2L3 C86 (P68036) (Homo sapiens, UniProt P68036); conditions: for isoTOP-ABPP ratio, P68036_C86: 500 μM, invitro;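 on isoTOP-ABPP reactivity profile ratio, P68036 C86: Heavy/light ratio DMSO over fragment-treated so higher means more cysteine engagement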
# [2] = target: T1, ADA C75 (P00813) (Homo sapiens, UniProt P00813); conditions: for isoTOP-ABPP ratio, P00813_C75: 500 μM, invitro, ramos
# T1 sequence (P00813 1-363): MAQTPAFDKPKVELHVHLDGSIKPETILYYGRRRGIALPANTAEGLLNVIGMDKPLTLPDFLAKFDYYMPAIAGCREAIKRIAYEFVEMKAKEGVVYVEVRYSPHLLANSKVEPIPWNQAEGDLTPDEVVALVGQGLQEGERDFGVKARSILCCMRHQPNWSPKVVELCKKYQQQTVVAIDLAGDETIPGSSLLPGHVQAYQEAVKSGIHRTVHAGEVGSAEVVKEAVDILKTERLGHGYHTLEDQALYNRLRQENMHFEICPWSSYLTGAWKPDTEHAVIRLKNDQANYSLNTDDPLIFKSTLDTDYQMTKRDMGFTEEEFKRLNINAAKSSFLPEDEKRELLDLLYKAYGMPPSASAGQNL
# [3] = target: SAMHD1 C522 (Q9Y3Z3) (Homo sapiens, UniProt Q9Y3Z3)
# [4] = target: T2, PDIA6 C55 (Q15084) (Homo sapiens, UniProt Q15084); conditions: for R value (DMSO/fragment): 250 μM, in vitro; for isoTOP-ABPP ratio Q15084_C55: 500 μM, invitro
# T2 sequence (Q15084 20-440): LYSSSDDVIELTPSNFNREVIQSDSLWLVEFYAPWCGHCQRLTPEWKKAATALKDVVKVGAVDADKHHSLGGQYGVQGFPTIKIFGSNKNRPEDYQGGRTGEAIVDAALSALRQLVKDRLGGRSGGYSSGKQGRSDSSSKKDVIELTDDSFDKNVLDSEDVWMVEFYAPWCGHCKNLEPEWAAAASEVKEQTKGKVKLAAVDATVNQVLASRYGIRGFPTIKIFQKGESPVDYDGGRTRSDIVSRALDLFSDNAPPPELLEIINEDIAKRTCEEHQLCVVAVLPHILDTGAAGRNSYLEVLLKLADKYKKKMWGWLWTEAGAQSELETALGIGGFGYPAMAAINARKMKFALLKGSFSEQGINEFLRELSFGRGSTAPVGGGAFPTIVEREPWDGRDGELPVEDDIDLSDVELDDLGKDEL
# [5] = target: XPO1 C528 (O14980) (Homo sapiens, UniProt O14980); conditions: for R value (DMSO/fragment): 250 μM, in vitro; for isoTOP-ABPP ratio O14980_C528: 500 μM, invitro, 231
# [6] = target: GNB2L1 C182 (P63244) (Homo sapiens, UniProt P63244); conditions: for isoTOP-ABPP reactivity profile ratio, P63244_C182 / isoTOP-ABPP reactivity ratio, P63244_C182: 500 μm; for isoTOP-ABPP ratio, P63244_C182: 500 μM, invitro;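 on isoTOP-ABPP reactivity profile ratio, P63244 C182: Heavy/light ratio DMSO over fragment-treated so higher means more cysteine engagement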
# [7] = target: T3, PDE12 C108 (Q6L8Q7) (Homo sapiens, UniProt Q6L8Q7)
# T3 sequence (Q6L8Q7 43-609): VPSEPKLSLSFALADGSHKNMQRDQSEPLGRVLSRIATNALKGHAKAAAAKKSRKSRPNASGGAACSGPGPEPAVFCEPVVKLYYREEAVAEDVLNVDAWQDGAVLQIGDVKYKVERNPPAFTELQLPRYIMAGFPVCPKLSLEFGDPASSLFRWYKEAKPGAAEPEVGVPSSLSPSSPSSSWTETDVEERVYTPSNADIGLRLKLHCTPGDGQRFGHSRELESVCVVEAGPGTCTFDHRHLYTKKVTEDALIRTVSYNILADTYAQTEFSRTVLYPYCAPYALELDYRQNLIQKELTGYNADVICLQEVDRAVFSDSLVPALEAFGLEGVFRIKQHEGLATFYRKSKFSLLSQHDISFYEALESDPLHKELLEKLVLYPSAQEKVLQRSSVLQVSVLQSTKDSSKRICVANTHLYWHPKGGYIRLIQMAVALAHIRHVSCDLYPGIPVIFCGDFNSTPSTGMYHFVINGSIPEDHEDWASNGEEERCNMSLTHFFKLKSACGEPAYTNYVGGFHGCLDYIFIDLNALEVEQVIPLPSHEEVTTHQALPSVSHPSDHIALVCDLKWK
structure (smiles),measurement,setting,value
COc1ccc(C2CC(c3cccs3)=NN2C(=O)CCl)cc1 (stereo not drawn) [compound 4],R value (DMSO/fragment),"[1]; 250 μM, in vitro, MDA-MB-231",1.2
same,R value (DMSO/fragment),"[2]; 250 μM, in vitro, Ramos",0.1
same,R value (DMSO/fragment),"[3]; 250 μM, in vitro, MDA-MB-231",1.5
same,R value (DMSO/fragment),[4]; MDA-MB-231,1.3
same,R value (DMSO/fragment),[4]; Ramos,1.2
same,R value (DMSO/fragment),[5]; MDA-MB-231,0.9
same,R value (DMSO/fragment),[5]; Ramos,1.1
same,R value (DMSO/fragment),"[6]; 250 μM, in vitro, MDA-MB-231",0.9
O=C(CCl)Nc1cccc2ncccc12 [compound 51],"isoTOP-ABPP reactivity profile ratio, P68036_C86","[1]; 500 μm, in-vitro_ramos",1.0
same,"isoTOP-ABPP reactivity profile ratio, P00813_C75","[2]; 500 μm, in-vitro_ramos",1.0
same,"isoTOP-ABPP reactivity profile ratio, Q15084_C55","[4]; 500 μm, in-vitro_ramos",2.7
same,"isoTOP-ABPP reactivity profile ratio, Q15084_C55","[4]; 500 μm, in-vitro_ramos_231",2.5
same,"isoTOP-ABPP reactivity profile ratio, O14980_C528","[5]; 500 μm, in-vitro_ramos",0.9
same,"isoTOP-ABPP reactivity profile ratio, P63244_C182",[6]; in-vitro_ramos,0.9
same,"isoTOP-ABPP reactivity profile ratio, P63244_C182",[6]; in-vitro_ramos_231,0.7
CC1CCc2ccccc2N1C(=O)CCl (stereo not drawn) [compound 45],"isoTOP-ABPP reactivity profile ratio, P63244_C182",[6]; in-vitro_ramos_231,0.9
O=C(CCl)NC1C(O)OC(CO)C(O)C1O (mixture of isomers) [compound 44],"isoTOP-ABPP reactivity profile ratio, Q6L8Q7_C108","[7]; 500 μm, in-vitro_ramos_231",0.8
same,"isoTOP-ABPP reactivity profile ratio, Q9Y3Z3_C522","[3]; 500 μm, in-vitro_ramos_231",0.8
same,"isoTOP-ABPP reactivity profile ratio, Q15084_C55","[4]; 500 μm, in-vitro_ramos_231",1.0
O=C(CCl)Nc1ccccc1C1CCCCCC1 [compound 35],"isoTOP-ABPP reactivity ratio, Q6L8Q7_C108","[7]; 500 μm, in-vitro_ramos_231",0.8
same,"isoTOP-ABPP reactivity ratio, P00813_C75","[2]; 500 μm, in-vitro_ramos",1.1
same,"isoTOP-ABPP reactivity ratio, Q15084_C55","[4]; 500 μm, in-vitro_ramos_231",0.9
same,"isoTOP-ABPP reactivity ratio, O14980_C528","[5]; 500 μm, in-vitro_ramos",0.8
same,"isoTOP-ABPP reactivity ratio, P63244_C182",[6]; in-vitro_ramos,0.9
same,"isoTOP-ABPP reactivity ratio, P63244_C182",[6]; in-vitro_ramos_231,0.9
O=C(CCl)NC(=O)NC12CC3CC(CC(C3)C1)C2 [compound 12],"isoTOP-ABPP ratio, Q6L8Q7_C108","[7]; 500 μM, invitro, ramos",1.5
same,"isoTOP-ABPP ratio, P00813_C75",[2],0.7
same,isoTOP-ABPP ratio Q15084_C55,[4]; 231,3.7
same,isoTOP-ABPP ratio Q15084_C55,[4]; ramos,3.1
same,isoTOP-ABPP ratio O14980_C528,[5],1.1
same,"isoTOP-ABPP ratio, P63244_C182",[6]; 231,0.9
same,"isoTOP-ABPP ratio, P63244_C182",[6]; ramos,0.8
O=C(CCl)N1CCN(S(=O)(=O)c2ccccc2F)CC1 [compound 10],"isoTOP-ABPP ratio, P68036_C86",[1]; 231,1.1
same,"isoTOP-ABPP ratio, P68036_C86",[1]; ramos,0.4
same,"isoTOP-ABPP ratio, P00813_C75",[2],1.0
same,"isoTOP-ABPP ratio, Q9Y3Z3_C522","[3]; 500 μM, invitro, 231",1.8
same,isoTOP-ABPP ratio Q15084_C55,[4]; 231,20.0
same,isoTOP-ABPP ratio O14980_C528,[5],0.8
same,"isoTOP-ABPP ratio, P63244_C182",[6]; 231,1.1
same,"isoTOP-ABPP ratio, P63244_C182",[6]; ramos,1.1
O=C(CCl)N1CCc2cc(Br)ccc21 [compound 50],"isoTOP-ABPP reactivity profile ratio, Q6L8Q7_C108","[7]; 500 μm, in-vitro_ramos_231",1.8
same,"isoTOP-ABPP reactivity profile ratio, Q15084_C55","[4]; 500 μm, in-vitro_ramos_231",1.3
same,"isoTOP-ABPP reactivity profile ratio, P63244_C182",[6]; in-vitro_ramos_231,0.8
O=C(CCl)N1CCN(CC(=O)N2CCOCC2)CC1 [compound 29],"isoTOP-ABPP ratio (reactivity profile), P68036_C86",[1]; 500 μm in-vitro ramos,1.5
same,"isoTOP-ABPP ratio (reactivity profile), P68036_C86",[1]; 500 μm in-vitro ramos_231,0.9
same,"isoTOP-ABPP ratio (reactivity profile), Q9Y3Z3_C522",[3]; 500 μm in-vitro ramos_231,1.5
same,"isoTOP-ABPP ratio (reactivity profile), Q15084_C55",[4]; 500 μm in-vitro ramos,1.3
same,"isoTOP-ABPP ratio (reactivity profile), Q15084_C55",[4]; 500 μm in-vitro ramos_231,1.0
same,"isoTOP-ABPP ratio (reactivity profile), O14980_C528",[5]; 500 μm in-vitro ramos_231,1.0
same,"isoTOP-ABPP ratio (reactivity profile), P63244_C182",[6]; 500 μm in-vitro ramos,1.2
same,"isoTOP-ABPP ratio (reactivity profile), P63244_C182",[6]; 500 μm in-vitro ramos_231,1.3
